{
  "source": "patent US20090176817A1",
  "about": "“Method of Treatment of Diarrhea-Predominant Irritable Bowel Syndrome in a Subject” (priority 2005, published 2009)",
  "key": {"[1]": {"system": "diarrhea-predominant IBS subjects", "format": "in vivo, human", "design": "key to Daily stool consistency score, mean change from Baseline at end of treatment / Mean stool consistency score at end of treatment / Stool consistency, mean change from rerandomization Baseline: stool consistency on a seven-point daily diary scale", "source_text": "(§1) Studies S24 1.3.OO6, S24 1.3.0 1 1, and S24 1.3.009 used the following efficacy measurements: • The subjects answered the following three questions with “yes” or “no” using a phone diary at the end of each week: • a) During the last week, did you experience adequate relief of your IBS symptoms, such as abdominal pain, abdominal discomfort, abnormal bowel habits? • b) During the last week, did you experience adequate relief of your abdominal pain and/or discomfort? • c) During the last week, did you experience adequate relief of your abnormal bowel habits? • The subjects rated the following symptoms using the phone diary at the end of each day: • abdominal pain/discomfort (five-point scale); • stool consistency (seven-point Bristol Stool Scale); • stool frequency (number of bowel movements each day); • urgency (five-point scale); • straining (yes or no); • feeling of incomplete defecation (yes or no); • bloating or feeling of abdominal distension (five-point scale). • In Studies S241 A006 and S241.3.009, subjects completed the IBS-QOL Survey at Baseline (Day 1) and at the end of treatment. In Study S24 1.3.0 1 1, subjects completed the IBS-QOL Survey at Baseline (Day 1), at the end of the three-month treatment period, and at the end of rerandomized treatment.\n(§2) Other secondary efficacy parameters for all three studies included: • Responder rate for the weekly diary questions on adequate relief at each month, where a responder for a month (monthly responder) was defined as a subject who answered the weekly question with “yes” at least twice for that month. The responder rate was the percentage of responders within a treatment group. The all-month responder rate for the weekly diary questions on adequate relief was also evaluated, where an all-month responder was defined as a subject who answered the weekly question with “yes” at least twice for each month. The all-month responder rate was the percentage of all-month responders within a treatment group; • Adequate relief rate for the weekly diary questions was calculated for each subject as the number of weekly assessments with adequate relief (“yes”) divided by the total number of weekly assessments; • Percentage of subjects with adequate relief for the weekly diary questions at each week; • Daily diary questions regarding abdominal pain/discomfort (five-point scale), stool consistency (seven-point scale), stool frequency (number of bowel movements each day), straining (yes or no), urgency (five-point scale), feeling of incomplete evacuation (yes or no), and bloating or feeling of abdominal distention (five-point scale); • QOL data assessed by the IBS-QOL questionnaire; and • Question to determine the interruption of activities."}, "[2]": {"system": "diarrhea-predominant IBS subjects", "experiment": "Study S241.3.009: IBS-QOL", "format": "in vivo, human", "design": "IBS-QOL interference with activity, treatment difference / IBS-QOL food avoidance, treatment difference / IBS-QOL dysphoria, treatment difference / IBS-QOL body image, treatment difference / IBS-QOL health worry, treatment difference / IBS-QOL social reaction, treatment difference / IBS-QOL sexual, treatment difference / IBS-QOL relationships, treatment difference: scale not given here", "conditions": "for Percentage of Subjects Who Worsened from Baseline: IBS-QOL Overall Score: S241.3.009, 2 mg TID, observed value", "source_text": "as §1, §2\nThe IBS-QOL is presented for the ITT population in FIG. 84 (change from Baseline). The IBS-QOL questionnaire was completed only in countries for which there was a validated translation available."}, "[3]": {"conditions": "both, human; for Fraction unbound ratio All Renal Groups Combined:Healthy / Fraction unbound ratio Mild:Healthy / Fraction unbound ratio Moderate:Healthy / Fraction unbound ratio Severe:Healthy: serum", "method": "(§3) The ex vivo protein binding of cilansetron and its 4-hydroxy metabolites has been measured in serum samples collected in a multiple-dose study in healthy and renally impaired male and female subjects, aged 33-74 years. […] Healthy subjects were matched to renally-impaired subjects with respect to age, weight, gender, and smoking status. All subjects received oral cilansetron 2 mg TID on Days 1 to 5, and a single dose on the morning of Day 6."}, "clinical": {"experiment": "clinical", "conditions": "both, human, serum, Fraction Unbound in Serum", "method": "as §3"}},
  "note": "Where two headings read alike, the source gives them in different places.",
  "data": [
    {"smiles": "Cc1nccn1C[C@H]1CCc2c(c3cccc4c3n2CCC4)C1=O", "note": "[Cilansetron, (R)-(−)-4,5,6,8,9,10-hexahydro-10-[(2-methyl-1H-imidazol-1-yl)methyl]-11H-pyrido-[3,2,1-jk]-carbazol-11-one]", "values": [
      {"measurement": "Mean number of stools per day at end of treatment", "setting": "[1]; 2 mg TID", "value": 2.41, "unit": "stools per day"},
      {"measurement": "Abdominal pain/discomfort, mean change from rerandomization Baseline", "setting": "[1]; C/C", "value": "−0.09"},
      {"measurement": "Bloating, mean change from rerandomization Baseline", "setting": "[1]; C/C", "value": "−0.05"},
      {"measurement": "Incomplete evacuation, mean change from Rerandomization Baseline", "setting": "[1]; C/C", "value": 0.01},
      {"measurement": "Stool consistency, mean change from rerandomization Baseline", "setting": "[1]; C/C", "value": "−0.09"},
      {"measurement": "Stools per day, mean change from rerandomization Baseline", "setting": "[1]; C/C", "value": "−0.02"},
      {"measurement": "Urgency, mean change from rerandomization Baseline", "setting": "[1]; C/C", "value": "−0.05"},
      {"measurement": "Abdominal pain/discomfort, mean change from rerandomization Baseline", "setting": "[1]; C/P", "value": 0.16},
      {"measurement": "Bloating, mean change from rerandomization Baseline", "setting": "[1]; C/P", "value": 0.16},
      {"measurement": "Incomplete evacuation, mean change from Rerandomization Baseline", "setting": "[1]; C/P", "value": 0.05},
      {"measurement": "Stool consistency, mean change from rerandomization Baseline", "setting": "[1]; C/P", "value": 0.55},
      {"measurement": "Stools per day, mean change from rerandomization Baseline", "setting": "[1]; C/P", "value": 0.22},
      {"measurement": "Urgency, mean change from rerandomization Baseline", "setting": "[1]; C/P", "value": 0.25},
      {"measurement": "Abdominal pain/discomfort, mean change from rerandomization Baseline", "setting": "[1]; P/C", "value": "−0.08"},
      {"measurement": "Bloating, mean change from rerandomization Baseline", "setting": "[1]; P/C", "value": "−0.03"},
      {"measurement": "Incomplete evacuation, mean change from Rerandomization Baseline", "setting": "[1]; P/C", "value": "−0.02"},
      {"measurement": "Stool consistency, mean change from rerandomization Baseline", "setting": "[1]; P/C", "value": "−0.84"},
      {"measurement": "Stools per day, mean change from rerandomization Baseline", "setting": "[1]; P/C", "value": "−0.31"},
      {"measurement": "Urgency, mean change from rerandomization Baseline", "setting": "[1]; P/C", "value": "−0.27"},
      {"measurement": "Median rate of urgency-free days", "setting": "[1]; end of treatment", "value": 0.25},
      {"measurement": "Median rate of pain-free days", "setting": "[1]; end of treatment (last two weeks)", "value": 0.15},
      {"measurement": "Bloating or abdominal distention score, mean change from Baseline at end of treatment", "setting": "[1]; in vivo", "value": "−0.43"},
      {"measurement": "Daily abdominal pain/discomfort score, mean change from Baseline at end of treatment", "setting": "[1]; in vivo", "value": "−0.69"},
      {"measurement": "Daily stool consistency score, mean change from Baseline at end of treatment", "setting": "[1]; in vivo", "value": "−1.02"},
      {"measurement": "Daily urgency score, mean change from Baseline at end of treatment", "setting": "[1]; in vivo", "value": "−0.78"},
      {"measurement": "Feeling of incomplete evacuation, mean change from Baseline at end of treatment", "setting": "[1]; in vivo", "value": "−0.20"},
      {"measurement": "Mean stool consistency score at end of treatment", "setting": "[1]; in vivo", "value": 4.28},
      {"measurement": "Mean straining, mean change from Baseline at end of treatment", "setting": "[1]; in vivo", "value": 0.05},
      {"measurement": "Stools per day, mean change from Baseline at end of treatment", "setting": "[1]; in vivo", "value": "−0.91"},
      {"measurement": "Median rate of pain-free days", "setting": "[1]; three-month period", "value": 0.22},
      {"measurement": "Median rate of urgency-free days", "setting": "[1]; three-month period", "value": 0.31},
      {"measurement": "Subjects worsened from Baseline, IBS-QOL Overall Score", "setting": "[2]; Month 6", "value": 5, "unit": "%"},
      {"measurement": "Percentage of Subjects Who Worsened from Baseline: IBS-QOL Overall Score", "setting": "[2]; Endpoint (last post-Baseline overall score)", "value": 5, "unit": "%"},
      {"measurement": "Percentage of Subjects Who Worsened from Baseline: IBS-QOL Overall Score", "setting": "[2]; Month 6", "value": 5, "unit": "%"},
      {"measurement": "IBS-QOL body image, treatment difference", "setting": "[2]; vs placebo", "value": 5.04},
      {"measurement": "IBS-QOL dysphoria, treatment difference", "setting": "[2]; vs placebo", "value": 8.78},
      {"measurement": "IBS-QOL food avoidance, treatment difference", "setting": "[2]; vs placebo", "value": 10.09},
      {"measurement": "IBS-QOL health worry, treatment difference", "setting": "[2]; vs placebo", "value": 5.41},
      {"measurement": "IBS-QOL interference with activity, treatment difference", "setting": "[2]; vs placebo", "value": 10.85},
      {"measurement": "IBS-QOL overall score, treatment difference in mean change from Baseline at Endpoint", "setting": "[2]; vs placebo", "value": 7.90},
      {"measurement": "IBS-QOL relationships, treatment difference", "setting": "[2]; vs placebo", "value": 5.66},
      {"measurement": "IBS-QOL sexual, treatment difference", "setting": "[2]; vs placebo", "value": 2.93},
      {"measurement": "IBS-QOL social reaction, treatment difference", "setting": "[2]; vs placebo", "value": 8.70},
      {"measurement": "Protein bound on average", "setting": "[3]", "value": "96.0-96.6%"},
      {"measurement": "Fraction unbound ratio All Renal Groups Combined:Healthy", "setting": "[3]", "value": "81 (62, 105) %"},
      {"measurement": "Fraction unbound ratio Mild:Healthy", "setting": "[3]", "value": "86 (61, 121) %"},
      {"measurement": "Fraction unbound ratio Moderate:Healthy", "setting": "[3]", "value": "84 (54, 131) %"},
      {"measurement": "Fraction unbound ratio Severe:Healthy", "setting": "[3]", "value": "73 (52, 102) %"},
      {"measurement": "Fraction unbound ratio All Renal Groups Combined:Healthy", "setting": "[3]; 1 h", "value": "94 (76, 116) %"},
      {"measurement": "Fraction unbound ratio Mild:Healthy", "setting": "[3]; 1 h", "value": "91 (70, 119) %"},
      {"measurement": "Fraction unbound ratio Moderate:Healthy", "setting": "[3]; 1 h", "value": "105 (79, 140) %"},
      {"measurement": "Fraction unbound ratio Severe:Healthy", "setting": "[3]; 1 h", "value": "87 (65, 115) %"},
      {"measurement": "Fraction unbound ratio All Renal Groups Combined:Healthy", "setting": "[3]; […]", "value": "88 (70, 109) %"},
      {"measurement": "Fraction unbound ratio Mild:Healthy", "setting": "[3]; […]", "value": "92 (69, 123) %"},
      {"measurement": "Fraction unbound ratio Moderate:Healthy", "setting": "[3]; […]", "value": "90 (66, 123) %"},
      {"measurement": "Fraction unbound ratio Severe:Healthy", "setting": "[3]; […]", "value": "81 (59, 110) %"},
      {"measurement": "fraction unbound", "setting": "clinical", "value": 0.0396},
      {"measurement": "fraction unbound at 1 h", "setting": "clinical", "value": 0.0351},
      {"measurement": "fraction unbound at […]", "setting": "clinical", "value": 0.034}
    ]}
  ]
}
